From PubChem BioAssay AID1963825 (Molecular Pharmacology Branch, DTP, NCI, 2024)
pIC50: −log10 of the molar value.

Assay: Anticancer human tumor 997537-175-T-J1-PDC patient-derived colon adenocarcinoma cell line growth inhibition [POLQ]
Conditions: 997537-175-T-J1-PDC complex spheroid viability, combination with POLQ inhibitors; for pIC50: curve of first compound; for viability, T/C: stronger effect = lower value; active = viability on the fitted dose curve at most 10% of control; inactive = the rest
Summary of the method: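 Three-cell-type spheroids modelling solid tumor plus stroma served as the readout system; POL inhibitors were tested individually and in combination, concentration ranges set by clinical Cmax where known.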
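Note: luminescence signal used as a surrogate for viable cells; spheroids exposed to drugs for seven days before readout.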

COc1cccc2c1C(=O)c1c(O)c3c(c(O)c1C2=O)CC(O)(C(=O)CO)CC3OC1CC(N)C(O)C(C)O1 (configuration not stated) + COC1C(OC(N)=O)C(O)C(Oc2ccc3c(O)c(NC(=O)c4ccc(O)c(CC=C(C)C)c4)c(=O)oc3c2C)OC1(C)C
5.78: pIC50 (second compound 0.1 µM)
active: viability, T/C (second compound 0.0316 µM, first compound 10 µM) 7.93% | viability, T/C (second compound 0.1 µM, first compound 10 µM) 10.4% | viability, T/C (second compound 0.316 µM, first compound 10 µM) 8.56% | viability, T/C (second compound 1 µM, first compound 10 µM) 9.76% | viability, T/C (second compound 10 µM, first compound 10 µM) 7.86%
5.69: pIC50 (second compound 3.16 µM)
5.65: pIC50 (second compound 0.316 µM)
5.56: pIC50 (second compound 10 µM)
5.49: pIC50 (second compound 1 µM)
inactive: viability, T/C (second compound 0.0316 µM, first compound 0.0316 µM) 114% | viability, T/C (second compound 0.0316 µM, first compound 0.1 µM) 100% | viability, T/C (second compound 0.0316 µM, first compound 0.316 µM) 98% | viability, T/C (second compound 0.0316 µM, first compound 1 µM) 84.8% | viability, T/C (second compound 0.0316 µM, first compound 3.16 µM) 40.2% | viability, T/C (second compound 0.1 µM, first compound 0.0316 µM) 102% | viability, T/C (second compound 0.1 µM, first compound 0.1 µM) 114% | viability, T/C (second compound 0.1 µM, first compound 0.316 µM) 95.6% | viability, T/C (second compound 0.1 µM, first compound 1 µM) 75.4% | viability, T/C (second compound 0.1 µM, first compound 3.16 µM) 18.1% | viability, T/C (second compound 0.316 µM, first compound 0.0316 µM) 101% | viability, T/C (second compound 0.316 µM, first compound 0.1 µM) 99.8% | viability, T/C (second compound 0.316 µM, first compound 0.316 µM) 102% | viability, T/C (second compound 0.316 µM, first compound 1 µM) 96.6% | viability, T/C (second compound 0.316 µM, first compound 3.16 µM) 29.2% | viability, T/C (second compound 1 µM, first compound 0.0316 µM) 94.7% | viability, T/C (second compound 1 µM, first compound 0.1 µM) 89.8% | viability, T/C (second compound 1 µM, first compound 0.316 µM) 88% | viability, T/C (second compound 1 µM, first compound 1 µM) 95.1% | viability, T/C (second compound 1 µM, first compound 3.16 µM) 50.8% | viability, T/C (second compound 3.16 µM, first compound 0.0316 µM) 106% | viability, T/C (second compound 3.16 µM, first compound 0.1 µM) 119% | viability, T/C (second compound 3.16 µM, first compound 0.316 µM) 75.4% | viability, T/C (second compound 3.16 µM, first compound 1 µM) 77.6% | viability, T/C (second compound 3.16 µM, first compound 3.16 µM) 34.8% | viability, T/C (second compound 3.16 µM, first compound 10 µM) 13.1% | viability, T/C (second compound 10 µM, first compound 0.0316 µM) 96.5% | viability, T/C (second compound 10 µM, first compound 0.1 µM) 99.3% | viability, T/C (second compound 10 µM, first compound 0.316 µM) 107% | viability, T/C (second compound 10 µM, first compound 1 µM) 97.4% | viability, T/C (second compound 10 µM, first compound 3.16 µM) 43.9%
5.60: pIC50 (second compound 0.0316 µM)
